From patent publication US11299467B2 (Antabio SAS, priority 2017, dated 2022)
≈ marks a conversion by molar mass, not a printed value.

What was measured:
[1] = system: NTBC035-2 (K. pneumoniae strain expressing NDM-1, CMY-4 and SHV-11); assay: Meropenem MIC, broth micro-dilution, NTBC035-2; format: cell-based; conditions: Klebsiella pneumoniae, read-out: MIC mero
Protocol: (§1) The experiments were carried out using the ‘broth micro-dilution method’ according to the protocols M07-A8 established by the Clinical Laboratory Standards Institute (CLSI). Serial dilutions of the β-lactam antibiotic (Meropenem) were prepared in 96-well plates in cation-adjusted Mueller-Hinton broth (CAMHB); the concentration range was defined from 0.03 mg/L to 512 mg/L. The compounds were added at a constant concentration of 8 μg/mL. A bacterial inoculum of each strain (clinical isolates) was adjusted to a 0.5 McFarland turbidity standard in physiologic serum (0.9% NaCl), then diluted 1:100 in CAMHB and added to each well to give a final bacterial cell number of 5×10^5 CFU/well. After incubation for 18-20 hours in a heating chamber at 37° C., the growth inhibition was evaluated by the absence of any bacterial development.
(§2) Compounds of the invention were tested at a constant concentration of 8 μg/mL. […]
(§3) Experiments were carried out using the ‘broth micro-dilution method’ according to the protocols M07-A8 established by the Clinical Laboratory Standards Institute (CLSI). […] After incubation for 18-20 hours in a heating chamber at 37° C., the growth inhibition was evaluated by the absence of any bacterial development. […]

[2] = system: NTBC123 (K. pneumoniae strain expressing NDM-1); assay: Meropenem MIC, broth micro-dilution, NTBC123; format: cell-based; conditions: Klebsiella pneumoniae, read-out: MIC mero
Protocol: as §1, §2, §3

[3] = system: NTBC024 (K. pneumoniae strain expressing VIM-19, TEM-1 and CTX-M-3); assay: Meropenem MIC, broth micro-dilution, NTBC024; format: cell-based; conditions: Klebsiella pneumoniae, read-out: MIC mero
Protocol: as §1, §2, §3

[4] = system: NTBC042 (E. coli strain expressing VIM-1, TEM-1, CTX-M-15, SHV-12); assay: Meropenem MIC, broth micro-dilution, NTBC042; format: cell-based; conditions: Escherichia coli, read-out: MIC mero
Protocol: as §1, §2, §3

[5] = system: NTBC055 (E. Coli strain expressing VIM-1); assay: Meropenem MIC, broth micro-dilution, NTBC055; format: cell-based; conditions: Escherichia coli, read-out: MIC mero
Protocol: as §1, §2, §3

[6] = system: NTBC062 (K. pneumoniae strain expressing IMP-1 and TEM-1); assay: Meropenem MIC, broth micro-dilution, NTBC062; format: cell-based; conditions: Klebsiella pneumoniae, read-out: MIC mero
Protocol: as §1, §2, §3

[7] = system: NTBC091-1 (E. coli strain expressing KPC-2 and TEM-1); assay: Meropenem MIC, broth micro-dilution, NTBC091-1; format: cell-based; conditions: Escherichia coli, read-out: MIC mero
Protocol: as §1, with “Experiments” for “The experiments”, “meropenem (mero)” for “the β-lactam antibiotic (Meropenem)”, “compounds (the compound of Example 2, above, and/or WCK4234)” for “compounds”, “the” for “a constant”, “indicated in the table below.” for “of 8 μg/mL.”
(§4) NTBC091-1 (E. coli strain expressing KPC-2 and TEM-1); NTBC093 (E. cloacae strain expressing KPC-2 and TEM-1); NTBC096-1 (K. pneumonia strain expressing OXA-181 and SHV-11); NTBC099 (K. pneumonia strain expressing KPC-3, SHV-11 and TEM-1); and NTBC189 (K. pneumonia strain expressing TEM-OSBL, CTX-M-14 and OXA-48).

[8] = system: NTBC093 (E. cloacae strain expressing KPC-2 and TEM-1); assay: Meropenem MIC, broth micro-dilution, NTBC093; format: cell-based; conditions: Enterobacter cloacae, read-out: MIC mero
Protocol: as §1, with “Experiments” for “The experiments”, “meropenem (mero)” for “the β-lactam antibiotic (Meropenem)”, “compounds (the compound of Example 2, above, and/or WCK4234)” for “compounds”, “the” for “a constant”, “indicated in the table below.” for “of 8 μg/mL.”
as §4

[9] = system: NTBC096-1 (K. pneumonia strain expressing OXA-181 and SHV-11); assay: Meropenem MIC, broth micro-dilution, NTBC096-1; format: cell-based; conditions: Klebsiella pneumoniae, read-out: MIC mero
Protocol: as §1, with “Experiments” for “The experiments”, “meropenem (mero)” for “the β-lactam antibiotic (Meropenem)”, “compounds (the compound of Example 2, above, and/or WCK4234)” for “compounds”, “the” for “a constant”, “indicated in the table below.” for “of 8 μg/mL.”
as §4

[10] = system: NTBC189 (K. pneumonia strain expressing TEM-OSBL, CTX-M-14 and OXA-48); assay: Meropenem MIC, broth micro-dilution, NTBC189; format: cell-based; conditions: Klebsiella pneumoniae, read-out: MIC mero
Protocol: as §1, with “Experiments” for “The experiments”, “meropenem (mero)” for “the β-lactam antibiotic (Meropenem)”, “compounds (the compound of Example 2, above, and/or WCK4234)” for “compounds”, “the” for “a constant”, “indicated in the table below.” for “of 8 μg/mL.”
as §4

K. pneumoniae NTBC104 = assay: In vivo efficacy, mouse thigh infection with K. pneumoniae NTBC104; conditions: meropenem at 30 mg/kg alone, 9 hours post infection
Protocol: Mice were infected in the thigh with K. pneumoniae NTBC104. […] The MIC of meropenem in the presence of 8 ug/mL of the compound of Example 2 is 4 ug/mL.
At the end of the experiment (9 hours post infection) the animals were sacrificed and the numbers of colony forming units (CFUs) were measured in order to quantify bacterial load (extent of the infection).

[11] = system: panel of clinical Enterobacteriacae strains expressing NDM enzymes (196 isolates); assay: Extended MIC profiling vs MBL-expressing clinical strains (meropenem potentiation); format: cell-based; conditions: 196 NDM-expressing clinical isolates
Source text: By contrast, the same concentration of meropenem alone is only capable of stopping the growth of <1% of the strains and within the parameters of the experiment the cessation of growth of 90% of all strains could not be achieved with meropenem alone.
To assess the coverage and potentiation of meropenem by compounds of the invention, the susceptibility of around 200 clinical isolates was examined. The criteria for selection into the panel was that the clinical strain was resistant to carbapenems, but only expressing NDM enzyme variants and not serine betalactamase enzymes with carbapenemase activity such as KPC or OXA.

C[C@@H](O)[C@H]1C(=O)N2C(C(=O)O)=C(S[C@@H]3CN[C@H](C(=O)N(C)C)C3)[C@H](C)[C@H]12 [Meropenem] was tested, and the MIC [1] was 64 µg/mL, the MIC [2] was 128 µg/mL and the MIC [3] was 16 µg/mL. The MIC [4] was 8 µg/mL, the MIC [5] was 4 µg/mL and the MIC [6] was 4 µg/mL. For the same molecule, the MIC [7] was 4 µg/mL (≈ 10.4 µM), the MIC [8] was 128 µg/mL (≈ 334 µM) and the MIC [9] was 16 µg/mL (≈ 41.7 µM). For the same molecule, the MIC [10] was 16 µg/mL (≈ 41.7 µM), the “bacterial load (CFUs)” value (K. pneumoniae NTBC104) was “reduced bacterial load slightly” and the “strains whose growth is stopped by the same concentration (8 ug/mL) of meropenem alone” value [11] was < 1%.
